The source of these data is ChEMBL document CHEMBL1157539, “Thousands of chemical starting points for antimalarial lead identification” (Nature, 2010).

Each structure is given as a SMILES string.

The subject of the assay is Plasmodium falciparum. As to the kind of experiment: GSK_TCMDC: Inhibition of Plasmodium falciparum 3D7 in whole erythrocytes, using parasite LDH activity as an index of growth. It is filed as functional, organism-based. Particulars: Plasmodium falciparum, 3D7.

Turning to `CN1CCCN(Cc2ccc(-c3ccc(NS(=O)(=O)c4cccc5cccnc45)cc3)cc2)CC1`, the XC50 came to 694 nM.
In the case of `COc1ccc2ncc(F)c(CCN3CC[C@H](NCc4cc(C#N)c5c(c4)OCCO5)[C@H](O)C3)c2c1` it was 885 nM; in that of `Cc1ccc(-c2cc(C(=O)Nc3ccc(S(=O)(=O)N4CCCCC4C)cc3)n[nH]2)c(O)c1` (configuration not stated), 1080 nM.
Consider `O=C(Nc1ccc(-c2ccccc2)cc1)Nc1cccc(Cn2nc(Cl)c(N3CCCNCC3)cc2=O)c1`, for which the XC50 stood at 676 nM.
Compound `CCOc1ccc(CN(CCc2ccc3c(c2)OCO3)Cc2cc(OC)ccc2O)cc1` showed an XC50 of 753 nM.
As to `COc1ccc(-c2cncc(-c3ccc(OC)c(OC)c3)n2)cc1OC`, the XC50 was found to be 777 nM.
With `Cc1cc(NC(=O)c2cccs2)ccc1OC1CCN(Cc2ccc(F)cc2)CC1` the figure was 481 nM; with `COc1ccc(NC(=O)NC2CCN(c3ccnc4cc(Cl)ccc34)C2)cc1` (configuration not stated), 99.3 nM.
In the case of `CC1CN(Cc2cccc(F)c2)CCN1c1ccc(NC(=O)c2ccc(F)cc2)cc1` (configuration not stated) it was 580 nM.
With `O=C(Nc1cccc(-c2nn3ncccc3c2-c2ccnc(Nc3ccccc3)n2)c1)c1c(F)cccc1F` the figure was 726 nM; with `Cc1cc(N(C)C2CCN(C)C2)nc(Nc2ccccc2Cl)n1` (configuration not stated), 754 nM; with `c1ccc(Cn2nnnc2-c2cccc(Nc3ccnc4cc(-c5nccs5)ccc34)c2)cc1`, 826 nM.
As for `Oc1ccc2ccccc2c1CNCC1CCCCC1`, the XC50 came to 667 nM.
For `CC(CON1C(N)=NC(N)=NC1(C)C)Cc1ccc(Cl)cc1Cl` (configuration not stated), the XC50 was determined as 3.2 nM.
Consider `O=[N+]([O-])c1cccc(NC(=S)N2CCCN(Cc3ccc(C(F)(F)F)cc3)CC2)c1`, for which the XC50 was 1200 nM.
`CN1CC(c2ccccc2)c2cc(O)c(CN3CCCCC3)cc2CC1Cc1ccccc1` (configuration not stated) registered an XC50 of 176 nM.
Take `CC1(C)N=C(N)N=C(N)N1c1cccc(I)c1`: the XC50 was determined as 126 nM.
With `CCCCCCN1CCC(NCc2ccc(C(F)(F)F)cc2)CC1` the figure was 375 nM.
On to `CCC1(CC)CN(c2ccccc2)c2ccc(O)cc2S(=O)(=O)C1CC(C)C` (configuration not stated), for which the XC50 is 402 nM.
`COc1cc2nc(N3CCC(CNC(=O)c4ccc(-c5ccccc5)cc4)CC3)nc(N)c2cc1OC` came in with an XC50 of 574 nM.
For the compound `N#Cc1cccc(NC(=O)Nc2ccc(CC(=O)N3CCc4cc(Cl)c(N5CCN(C/C=C/c6ccccc6)CC5)cc43)cc2)c1`, the XC50 came out at 875 nM.
Regarding `Cc1cc(C)c2c(c1)C(=NO)CCN2`, the XC50 came to 945 nM.
With `CN1CCN(c2ccnc3ccc(NC(=O)Nc4ccc(-c5ccncc5)c5ccccc45)cc23)CC1` the figure was 312 nM.
Take `CCCCC(N)COc1cccc2c(-c3ccncc3)c(-c3cccc(NC(=O)Nc4ccccc4)c3)nn12` (configuration not stated): the XC50 was determined as 878 nM.
Turning to `COc1ccc2nccc(NCC3(O)CCN(CCc4ccc5c(c4)OCCO5)CC3)c2n1`, the XC50 came to 597 nM.
In the case of `CCc1ccc(O)c(-c2cc(C(=O)Nc3ccc(OC)c(Cl)c3)[nH]n2)c1` it was 870 nM.
The compound `O=C(/C=C/c1ccc(Cl)c(Cl)c1)NCCCCCN1CCC(c2c[nH]c3ccccc23)CC1` had an XC50 of 781 nM.
`N#Cc1ccc2c(c1)CN(CCCCNC(=O)c1ccc(-c3ccccc3)cc1)CC2` registered an XC50 of 894 nM.
In the case of `CCc1cn(CC(=O)N(CCOc2ccc(-c3ccc(C(F)(F)F)cc3)cc2)CCN(CC)CC)c(SCc2ccc(F)cc2)nc1=O` it was 777 nM; in that of `COc1ccc2nccc(N3CCC(O)(CCNCc4ccc5c(n4)NC(=O)CS5)CC3)c2n1`, 648 nM.
With `C=CCc1cccc(OC)c1OCCCON1C(=N)N=C(N)NC1(C)C` the figure was 3.2 nM; with `COc1ccc(N2CCN(c3nc(Nc4ccc(NC(C)=O)cc4)nc(N4CCCC4)n3)CC2)cc1`, 976 nM; with `Cc1cc2nc(-c3cc(-c4cccc(NS(C)(=O)=O)c4)cnc3N)[nH]c2cc1C`, 672 nM.
With `O=C(c1cccc(-c2cccc(-c3nc4cc(F)ccc4[nH]3)c2)c1)N1CCCCC1CN1CCC(O)C1` (configuration not stated) the figure was 882 nM; with `COc1cccc2cc(C(=O)N[C@@H](CC(C)C)C(=O)N[C@H](C=NN3CCOC3=O)Cc3ccccc3)oc12`, 686 nM.
Take `COc1cc(NC(=O)c2nn(CCCN3CCC(N4CCCC4)CC3)cc2-c2ccc(Cl)c(Cl)c2)cc(OC)c1OC`: the XC50 was found to be 555 nM.
In the case of `COc1ccc(Nc2nccc(NCC(O)c3ccc(C(F)(F)F)cc3)n2)cc1` (configuration not stated) it was 545 nM; in that of `Cc1cccc2nc(-c3cccc(-c4cccc(NC(=O)c5cnccc5C(F)(F)F)c4)c3)[nH]c12`, 659 nM.
With `CCNc1cc(C(=O)N[C@@H](Cc2ccccc2)[C@H](O)CN[C@H](C)c2ccccc2)cc(N2CCCC2=O)c1` the figure was 54.3 nM; with `Cc1nnsc1C(=O)Nc1cccc(-c2cccc(-c3nc4cccc(C)c4[nH]3)c2)c1`, 267 nM; with `CCn1c(Sc2ccc([N+](=O)[O-])c(C#N)c2)nnc1-c1ccc(Cl)cc1`, 1000 nM.
For the compound `COc1ccc(C(=C(C)CC(C)C(=O)O)c2ccccc2)cc1` (configuration not stated), the XC50 came out at 845 nM.
With `CCOC(=O)c1c(NC(=O)c2ccccc2)sc2c(O)c(CN(CC)CC)ccc12` the figure was 969 nM.
In the case of `CC1(C)NC(N)=NC(=N)N1OCCOc1ccc(Cc2ccccc2)cc1` it was 44 nM; in that of `O=C(Nc1ccc(O)c(-c2nc3ccccc3[nH]2)c1)c1ccc([N+](=O)[O-])cc1`, 318 nM.
In the case of `O=C(Cc1ccccc1)NC(CCN1CCC(NC(=O)c2ccc(Cl)cc2)CC1)c1ccc(Cl)c(Cl)c1` (configuration not stated) it was 916 nM; in that of `Cc1cc(Nc2ccccc2)nc(Nc2ccccc2)n1`, 799 nM.
`CCNC(=O)CCc1cccc(Br)c1`: the XC50 is 533 nM.
For `O=C(NC(c1ccccc1)c1ccccc1)C(c1cc2ccccc2o1)N1CCN(C(c2ccccc2)c2ccccc2)CC1` (configuration not stated), the XC50 is 679 nM.
Compound `COc1cc(NCCCNCc2cn(Cc3cc(Br)cc(Br)c3)c3ccccc23)nc2ccccc12` came in with an XC50 of 185 nM.
With `CCCCCN1C(=O)N(c2ccc(Cl)c(Cl)c2)C(N(O)C(=O)Nc2ccc(Cl)c(Cl)c2)C1(C)C` (configuration not stated) the figure was 545 nM; with `CN(C)CCNc1ncnc2c1[nH]c1ccc(Cl)cc12`, 601 nM.
On to `CC[C@H]1CN2CCc3cc(OC)c(OC)cc3[C@@H]2C[C@@H]1C[C@H]1NCCc2cc(OC)c(OC)cc21` [EMETINE], for which the XC50 is 214 nM.
In the case of `O=C(N[C@@H](Cc1ccccc1)C(=O)NC1CCCCCC1)c1ccc(O)c(-c2ccc(Cl)c(Cl)c2)c1` it was 329 nM.
In the case of `CN1CCN(CC(=O)Nc2ccc(-c3ccc(-c4nc5ccccc5[nH]4)s3)cc2)CC1` it was 299 nM; in that of `C=C[C@H]1CN2CC[C@H]1C[C@H]2[C@H](O)c1cc(/C=C/c2ccc(F)cc2)nc2ccc(OC)cc12`, 34.2 nM.
As to `Cc1cc(C2CCN(CCCCNC(=O)c3ccc(NC(=O)c4ccc(Cl)cc4)cc3)CC2)c(C)cc1OCc1nccn1C`, the XC50 turned out to be 835 nM.
`CCc1ccc(NC(=O)c2ccc(CN3CCCN(Cc4cccc(C)c4)CC3)cc2)cc1` returned an XC50 of 1130 nM.
In the case of `Cc1ccc2ccccc2c1CCCON1C(=N)N=C(N)NC1(C)C` it was 3.2 nM; in that of `O=C(Cc1ccccc1)NC1CCN(c2ccnc3cc(Cl)ccc23)C1` (configuration not stated), 805 nM; in that of `Oc1ccc(CCNCc2ccc(OCc3ccccc3)c(OCc3ccccc3)c2)cc1`, 1510 nM.
`N#Cc1cccc(Nc2ncc3c(-c4cccc(NC(=O)Cc5cccc(Cl)c5)c4)c[nH]c3n2)c1` had an XC50 of 423 nM.
